Data reported in article PMC8426237, “A first-in-human phase I study of TAS0728, an oral covalent binding inhibitor of HER2, in patients with advanced solid tumors with HER2 or HER3 aberrations” (Investigational New Drugs, 2021).

Test: Phase I safety assessment: adverse events (CTCAE v5.0) in patients
[1] = 50-mg dose level cohort, 2 of 3
[2] = Dose Level 1: 50 mg BID (N = 3)
[3] = Dose Level 2: 100 mg BID (N = 3)
[4] = Dose Level 3: 200 mg BID (N = 7)

Description: A DLT was defined as a study treatment-related adverse event (TRAE), according to the Common Terminology Criteria for Adverse Events (CTCAE, Version 5.0), with qualifying criteria for certain DLTs (e.g., Grade ≥ 3 diarrhea, was included as a DLT only if lasting >48 h and unresponsive to intensive antidiarrheal medication).
Patients were closely monitored for these potential toxicities during the current study. Safety assessments included recording of AEs and serious AEs (SAEs) from the time of signing the study informed consent form to 30 days after the last dose of study medication. Safety parameters including laboratory evaluations (hematology, coagulation, chemistry, and urinalysis), vital sign measurements and body weight, electrocardiogram (ECG) recordings, ECOG performance status, echocardiogram or multi-gated acquisition (MUGA), and physical examination were assessed at screening, during the study and at 30 days following the last dose. The use of concomitant medications was permitted and details for such medications were recorded.

C=CC(=O)N1CCC[C@@H](n2nc(C(=O)Nc3ccc(CC(=O)N(C)C)c(C)c3C)c3c(N)ncnc32)C1 [TAS0728]
4 (66.7) n, (%): Patients with SAEs (150 mg BID (N = 6))
2 (33.3) n, (%): Patients with treatment-related and Grade ≥ 3 AEs (150 mg BID (N = 6))
1: Patients with diarrhea at a severity ≥Grade 3 (50-mg dose level cohort)
85.7%: Patients with diarrhea (200-mg dose, 6 of 7)
3: Patients with diarrhea at a severity ≥Grade 3 (200-mg dose)
6 (100) n, (%): Patients with AEs (150 mg BID (N = 6))
3 (100) n (%): Adverse events experienced in ≥10% patients, Grade 1 [2] | Adverse events experienced in ≥10% patients, Total [2] | Adverse events experienced in ≥10% patients, Grade 1 [3] | Adverse events experienced in ≥10% patients, Total [3] | Diarrhea, Grade 1 [3] | Diarrhea, Total [3]
28.6%: Patients with asthenia (200-mg dose, 2/7) | Patients with decreased appetite (200-mg dose, 2/7) | Patients with dry skin (200-mg dose, 2/7) | Patients with edema peripheral (200-mg dose, 2/7) | Patients with hypokalemia (200-mg dose, 2/7) | Patients with nausea (200-mg dose, 2/7) | Patients with vomiting (200-mg dose, 2/7)
0 n, (%): Patients with AEs that had an outcome of death (50 mg BID (N = 3)) | Patients with AEs that led to study treatment discontinuation (50 mg BID (N = 3)) | Patients with treatment-related and Grade ≥ 3 AEs (50 mg BID (N = 3)) | Patients with AEs that had an outcome of death (100 mg BID (N = 3)) | Patients with Grade ≥ 3 AEs (100 mg BID (N = 3)) | Patients with SAEs (100 mg BID (N = 3)) | Patients with treatment-related and Grade ≥ 3 AEs (100 mg BID (N = 3)) | Patients with AEs that had an outcome of death (200 mg BID (N = 7))
5 (83.3) n, (%): Patients with treatment-related AEs (150 mg BID (N = 6))
71.4%: Patients with anemia (200-mg dose, 5/7)
3 (42.9) n, (%): Patients with SAEs (200 mg BID (N = 7))
1 (33.3) n, (%): Patients with SAEs (50 mg BID (N = 3)) | Patients with AEs that led to study treatment discontinuation (100 mg BID (N = 3))
one: Patients with fatal cardiac arrest (Grade 5) (150 mg BID, after 1 cycle (21 days))
4 (57.1) n, (%): Patients with Grade ≥ 3 AEs (200 mg BID (N = 7)) | Patients with treatment-related and Grade ≥ 3 AEs (200 mg BID (N = 7))
100%: Patients with diarrhea (all Grade 1 or Grade 2) (100-mg dose level cohort, all 3)
3 (42.9) n (%): Anemia, Grade 2 [4] | Cough, Grade 1 [4] | Cough, Total [4] | Dermatitis acneiform, Total [4]
6 (85.7) n (%): Adverse events experienced in ≥10% patients, Grade 1 [4]
2: Patients who worsened to an ECOG status of 2 (1 in each of the 200-mg and 150-mg BID cohorts, ECOG 1 at baseline)
2 (66.7) n, (%): Patients with Grade ≥ 3 AEs (50 mg BID (N = 3))
0 n (%): Adverse events experienced in ≥10% patients, Grade 5 [2] | Diarrhea, Grade 4 [2] | Diarrhea, Grade 5 [2] | Hyperuricemia, Grade 2 [2] | Hyperuricemia, Grade 3 [2] | Hyperuricemia, Grade 4 [2] | Hyperuricemia, Grade 5 [2] | Hyperuricemia, ≥Grade 3 [2] | Adverse events experienced in ≥10% patients, Grade 3 [3] | Adverse events experienced in ≥10% patients, Grade 4 [3] | Adverse events experienced in ≥10% patients, Grade 5 [3] | Adverse events experienced in ≥10% patients, ≥Grade 3 [3] | Diarrhea, Grade 3 [3] | Diarrhea, Grade 4 [3] | Diarrhea, Grade 5 [3] | Diarrhea, ≥Grade 3 [3] | Adverse events experienced in ≥10% patients, Grade 4 [4] | Adverse events experienced in ≥10% patients, Grade 5 [4] | Anemia, Grade 4 [4] | Anemia, Grade 5 [4] | Asthenia, Grade 3 [4] | Asthenia, Grade 4 [4] | Asthenia, Grade 5 [4] | Asthenia, ≥Grade 3 [4] | Cough, Grade 2 [4] | Cough, Grade 3 [4] | Cough, Grade 4 [4] | Cough, Grade 5 [4] | Cough, ≥Grade 3 [4] | Decreased appetite, Grade 3 [4] | Decreased appetite, Grade 4 [4] | Decreased appetite, Grade 5 [4] | Decreased appetite, ≥Grade 3 [4] | Dermatitis acneiform, Grade 3 [4] | Dermatitis acneiform, Grade 4 [4] | Dermatitis acneiform, Grade 5 [4]
7 (100) n, (%): Patients with AEs (200 mg BID (N = 7))
2 (28.6) n (%): Anemia, Grade 1 [4] | Asthenia, Grade 1 [4] | Asthenia, Total [4] | Decreased appetite, Total [4] | Dermatitis acneiform, Grade 1 [4]
1 (16.7) n, (%): Patients with AEs that had an outcome of death (150 mg BID (N = 6)) | Patients with AEs that led to study treatment discontinuation (150 mg BID (N = 6))
66.7%: Patients with diarrhea [1] | Patients with hyperuricemia [1]
7 (100) n (%): Adverse events experienced in ≥10% patients, Grade 2 [4] | Adverse events experienced in ≥10% patients, Total [4]
4 (57.1) n (%): Adverse events experienced in ≥10% patients, Grade 3 [4] | Adverse events experienced in ≥10% patients, ≥Grade 3 [4]
5.3%: Treatment discontinuation due to AEs (1 patient of 19) | Treatment discontinuation due to fatal cardiac arrest (1 patient of 19)
5 (71.4) n (%): Anemia, Total [4]
6 (85.7) n, (%): Patients with treatment-related AEs (200 mg BID (N = 7))
1 (33.3) n (%): Adverse events experienced in ≥10% patients, Grade 2 [2] | Adverse events experienced in ≥10% patients, Grade 4 [2] | Diarrhea, Grade 2 [2] | Diarrhea, Grade 3 [2] | Diarrhea, ≥Grade 3 [2] | Diarrhea, Grade 2 [3]
42.9%: Patients with cough (200-mg dose, 3/7) | Patients with dermatitis acneiform (200-mg dose, 3/7) | Patients with fatigue (200-mg dose, 3/7) | Patients with pyrexia (200-mg dose, 3/7)
1 (14.3) n, (%): Patients with AEs that led to study treatment discontinuation (200 mg BID (N = 7))
2 (66.7) n (%): Adverse events experienced in ≥10% patients, Grade 3 [2] | Adverse events experienced in ≥10% patients, ≥Grade 3 [2] | Diarrhea, Grade 1 [2] | Diarrhea, Total [2] | Hyperuricemia, Grade 1 [2] | Hyperuricemia, Total [2] | Adverse events experienced in ≥10% patients, Grade 2 [3]
3 (50.0) n, (%): Patients with Grade ≥ 3 AEs (150 mg BID (N = 6))
3 (100) n, (%): Patients with AEs (50 mg BID (N = 3)) | Patients with treatment-related AEs (50 mg BID (N = 3)) | Patients with AEs (100 mg BID (N = 3)) | Patients with treatment-related AEs (100 mg BID (N = 3))
1 (14.3) n (%): Anemia, Grade 3 [4] | Anemia, ≥Grade 3 [4] | Asthenia, Grade 2 [4] | Decreased appetite, Grade 1 [4] | Decreased appetite, Grade 2 [4] | Dermatitis acneiform, Grade 2 [4]
